Assay: Solubility of FDKP as a function of pH
Type: physicochemical

- solubility (at neutral or basic pH): readily soluble
- solubility (in acid): low solubility
SMILES: O=C(O)/C=C/C(=O)NCCCCC1NC(=O)C(CCCCNC(=O)/C=C/C(=O)O)NC1=O (centres unmarked) [FDKP, bis-3,6-(N-fumaryl-4-aminobutyl)-2,5-diketo-diketopiperazine]

From patent US8778403B2, “Diketopiperazine microparticles with defined specific surface areas” (MannKind Corporation, priority 2009, dated 2014)
